According to patent US12516060B2, “Solid freebase forms of 5-chloro-2-(4-((2-hydroxy-2-methylpropyl)amino)pyrido[3,4-d]pyridazin-1-yl)phenol for inhibiting NLRP3 and uses thereof” (Ventus Therapeutics U.S., Inc., priority 2023, dated 2026):

How the values were obtained:
Type in all cases: physicochemical
[1] = Thermal treatment of solid forms; conditions: held 10 min; for XRPD after thermal treatment to 210° C.: 30 to 210° C. at 10° C./min, cooled to 30° C.
Procedure: Thermal treatment of the Amorphous freebase was carried out. 10 mg of amorphous Compound 1 freebase was weighed into a 100 μL DSC pan. The pan was heated at a rate of 10° C./min to 200° C., held at 200° C. for 10 min, then cooled at a rate of 20° C./min to 25° C. Data not shown. The resulting solids were brittle and dark-orange. The solids sampled for XRPD, NMR, and HPLC purity analysis indicated decomposition of Compound 1 freebase rather than maintaining the amorphous state or conversion to a crystalline form.
Thermal treatment of Form III freebase to 210° C. was carried out. Approximately 5 mg of Form III freebase was weighed into a DSC pan. The sample was heated from 30° C. to 210° C. at a rate of 10° C./min, held at 210° C. for 10 min, then cooled from 210° C. to 30° C. at a rate of 20° C./min. […] Data not shown. The peaks at 16.2 °2θ and 20.1 °2θ may have been due to trace amounts of Form II freebase (Example 3).
Thermal treatment of Form IV freebase to 210° C. was carried out. Approximately 5 mg of Form IV freebase was weighed into a DSC pan. The sample was heated from 30° C. to 210° C. at a rate of 10° C./min, held at 210° C. for 10 min, then cooled from 210° C. to 30° C. at a rate of 20° C./min.

[2] = Solvent addition to Amorphous freebase
[3] = Dynamic Vapor Sorption (DVS); conditions: for water uptake, weight gain between 5-95% relative humidity (RH) / hygroscopicity: DVS; for DVS mass change 5-95% RH (wt. %) / water uptake, weight gain between 5-95% relative humidity (RH): 5-95% RH; for hygroscopicity: all adsorbed water lost during the drying cycle; for XRPD pre- and post-DVS: form stability after DVS cycle
Procedure: DVS was performed using TA Instruments Q5000SA. The sample (5-15 mg) was loaded into a metallic quartz sample pan, suspended from a microbalance, and exposed to a humidified stream of nitrogen gas. Weight changes were relative to a matching empty reference pan opposite the sample, suspended from the microbalance. The sample was held for a minimum of 10 min at each level and only progressed to the next humidity level if there was <0.002% change in weight between measurements (interval: 5 s) or 45 min had elapsed (for 5-65% RH) or 2 h had elapsed (for 80 and 95% RH). Mass change by DVS is related to hygroscopicity.

[4] = Dry and solvent-drop milling of Form I freebase; conditions: 16 s at 3500 rpm
Procedure: Dry and solvent-drop milling on pure-phase Form I freebase was performed using a ball mill with ¼ inch stainless steel ball as milling media. Approximately 30-35 mg of Form I freebase was weighed into a milling capsule and 1 vol. of solvent (solvent drop) was added. The milling was carried out for 16 s at 3500 rpm. Overall, no new patterns were identified from dry and solvent-drop milling experiments. […] Loss of crystallinity was most evident in the dry-milled sample, though Form I freebase pattern was still readily distinguished.

[5] = First set of competitive slurry experiments (Form I-IV freebases); conditions: for relative stability of Forms I-IV freebases: five solvent systems; for evidence of form by XRPD after 2 days: slurries seeded with Forms I-IV, RT or 50° C., all experiments
Procedure: Competitive slurry experiments were carried out with Form I-IV freebases at two temperatures, room temperature (RT) and 50° C., in five solvents/solvent systems. First, saturated solutions of Form I freebase (Example 2) were prepared at each temperature in each solvent system. To make the saturated solutions, Form I freebase was added to 2 mL of solvent already stirring at the desired temperature, either room temperature (RT) or at 50° C. Once a thin slurry was observed, the samples were left to equilibrate overnight. After stirring overnight, the stir bars were removed to allow the solids to settle, and the supernatant was pipetted into clean 4 mL vials containing a 10 mm stir bar.
The supernatant was then left to stir for an additional 15 min prior to adding seeds (approximately 5 mg per form, pre-weighed) of the following patterns: Form I freebase (Example 2), Form II freebase (Example 3), Form III freebase (Example 4) and Form IV freebase (Example 5). Samples of the slurries were plated for XRPD analysis immediately after seeding. The slurries were then sampled again after 2 days and 7 days at the respective temperatures.

[6] = Solid form stability studies, 75% RH at 40° C. for one week (XRPD and HPLC); conditions: for XRPD (tested material): 75% ± 5% RH at 40° C. ± 2° C. for 1 week; for Purity % a/a (tested material) / Purity % a/a (input material): HPLC; for Purity % a/a (tested material): after 75% ± 5% RH at 40° C. ± 2° C. for 1 week; for Purity % a/a (input material): before stability test
Procedure: Solid form stability studies were performed on Form I-V freebase forms by weighing approximately 10-15 mg of the crystalline material into 4 mL vials and covering with a lab grade task wipe (Kimwipe). These vials were placed inside a stability chamber set at 75%±5% relative humidity (RH) at 40° C.±2° C., where they were left for one week (7 full days). The retrieved material was then analyzed by XRPD and HPLC. In each case, the initial material and tested material were identical by XRPD, with the exception of Form I freebase, where an extra peak at 5.8 °2θ in the initial material was absent after the stability test. HPLC purities of the tested material were essentially unchanged from those of the initial material.

[7] = Drying of Patterns overnight at 50° C.; conditions: XRPD
Procedure: For fast-cooling crystallization, Form I freebase was obtained from methanol (MeOH), MeOH:water (9:1 vol.), ethanol (EtOH):water (9:1 vol.), ethyl acetate (EtOAc):N,N-dimethylformamide (DMF) (9:1 vol.), and EtOH:tetrahydrofuran (THF) (3:7 vol.). Form II freebase (Example 3) was obtained from THF, and from acetonitrile:dimethylformamide (DMF) (9:1 vol.) as a mixture with Form I freebase. Pattern C (Example 7) was obtained from isopropanol (IPA):water (9:1 vol.) at −20° C.
Pattern B (Example 7) was obtained from dimethylacetamide (DMAc)/methyl isobutyl ketone (MIBK) after standing overnight at −20° C. […] A mixture of Form III freebase (Example 4) (major) and Form I freebase (minor) was obtained from the direct addition of water into dimethylsulfoxide (DMSO). The ratio of the two patterns was unchanged after drying in vacuo at 50° C. for 4 h. Reverse addition (DMSO/water) gave Form III freebase (Example 4) alone, with no evidence of Form I freebase. Reverse antisolvent addition (dimethylacetamide (DMAc)/water or N-methylpyrrolidone (NMP)/water) gave Form IV freebase (Example 5).
Pattern B freebase was obtained from dimethylacetamide (DMAc)/methyl isobutyl ketone (MIBK) after standing overnight at −20° C. See Example 2, Table 2B. […] The XRPD of Pattern B freebase, taken before drying, is provided in FIG. 7C, and the corresponding signal list is provided in Table 7B.
Pattern C freebase was obtained from isopropanol (IPA):water (9:1 vol.) at −20° C.

DVS mass change 5-95% RH (wt. %) [3] [wt. %]	water uptake, weight gain between 5-95% relative humidity (RH) [3]	hygroscopicity [3]	XRPD pre- and post-DVS [3]	relative stability of Forms I-IV freebases ([5]; RT and 50° C.)	XRPD (tested material) [6]	Purity % a/a (tested material) [6] [% a/a]	Purity % a/a (input material) [6] [% a/a]	Structure (SMILES)	also measured
–	–	–	–	–	–	–	–	CC(C)(O)CNc1nnc(-c2ccc(Cl)cc2O)c2ccncc12 [Amorphous freebase, 5-chloro-2-(4-((2-hydroxy-2-methylpropyl)amino)pyrido[3,4-d]pyridazin-1-yl)phenol]	XRPD, NMR, and HPLC purity analysis after thermal treatment ([1]; heated 10° C./min to 200° C., cooled to 25° C.): decomposition; form conversion upon addition of solvent ([2]; 5 vol. acetone): Rapid conversion of the Amorphous freebase to Form I freebase; form conversion upon addition of solvent ([2]; toluene): rapid conversion of the Amorphous freebase to Form II freebase
0.5	0.5%	slightly, hygroscopic	remain unchanged	more stable	Form I	97.94	98.06	CC(C)(O)CNc1nnc(-c2ccc(Cl)cc2O)c2ccncc12 [Form I freebase, 5-chloro-2-(4-((2-hydroxy-2-methylpropyl)amino)pyrido[3,4-d]pyridazin-1-yl)phenol]	XRPD after milling ([4]; None (dry)): Form I; XRPD after dry and solvent-drop milling (overall) ([4]; ball mill): remained largely unchanged; XRPD after milling ([4]; solvent drop 1 vol. Acetone): Form I; XRPD after milling ([4]; solvent drop 1 vol. Isopropanol:water (9:1 vol.)): Form I; XRPD after milling ([4]; solvent drop 1 vol. Methanol (MeOH)): Form I; XRPD after milling ([4]; solvent drop 1 vol. Tetrahydrofuran (THF)): Form I; XRPD after milling ([4]; solvent drop 1 vol. acetonitrile:dimethylformamide (8:2 vol.)): Form I
1.03	about 1.03%	slightly, hygroscopic	remained unchanged	more stable	Form II	98.12	98.12	CC(C)(O)CNc1nnc(-c2ccc(Cl)cc2O)c2ccncc12 [Form II freebase, 5-chloro-2-(4-((2-hydroxy-2-methylpropyl)amino)pyrido[3,4-d]pyridazin-1-yl)phenol]	form favored after 7 days ([5]; RT and 50° C., 7 days): favored in most solvent systems; form favored, Form II vs Form I ([5]; overall conclusion of first set): favored over Form I freebase in all solvent systems except acetone:water (7:3 vol.)
0.24	about 0.24%	slightly, hygroscopic	remained unchanged	converted rapidly	Form III	99.60	99.54	CC(C)(O)CNc1nnc(-c2ccc(Cl)cc2O)c2ccncc12 [Form III freebase, 5-chloro-2-(4-((2-hydroxy-2-methylpropyl)amino)pyrido[3,4-d]pyridazin-1-yl)phenol]	XRPD after thermal treatment to 210° C. [1]: conversion to Form I freebase; evidence of form by XRPD after 2 days [5]: no evidence
1.59	about 1.59%	slightly, hygroscopic	remained unchanged	converted rapidly	Form IV	98.53	99.48	CC(C)(O)CNc1nnc(-c2ccc(Cl)cc2O)c2ccncc12 [Form IV freebase, 5-chloro-2-(4-((2-hydroxy-2-methylpropyl)amino)pyrido[3,4-d]pyridazin-1-yl)phenol]	XRPD after thermal treatment to 210° C. [1]: conversion to Form I freebase; evidence of form by XRPD after 2 days [5]: no evidence
–	–	–	–	–	–	–	–	CC(C)(O)CNc1nnc(-c2ccc(Cl)cc2O)c2ccncc12 [Pattern B freebase, 5-chloro-2-(4-((2-hydroxy-2-methylpropyl)amino)pyrido[3,4-d]pyridazin-1-yl)phenol]	form after drying overnight at 50° C. [7]: conversion to Form I freebase; form after drying overnight at 50° C. ([7]; listed as Pattern B): conversion to Form I freebase
–	–	–	–	–	–	–	–	CC(C)(O)CNc1nnc(-c2ccc(Cl)cc2O)c2ccncc12 [Pattern C freebase, 5-chloro-2-(4-((2-hydroxy-2-methylpropyl)amino)pyrido[3,4-d]pyridazin-1-yl)phenol]	form after drying overnight at 50° C. [7]: converted to the low-crystalline version of Form I freebase (Pattern A freebase); form after drying overnight at 50° C. ([7]; listed as Pattern C): converted to Pattern A
